In US11208391B2, “Polymorphs and new path to synthesize Tafamidis” (AZAD PHARMA AG, priority 2018, dated 2021):

Experiment: Pressure resistance of the crystalline form (hydraulic press, then PXRD/DSC)
Format: physicochemical
Details: pressed 3-5 seconds at 1.5 MPa, Perkin Elmer hydraulic press, 13 mm stamp, material of method 1 (pentane/heptane), compared with non-pressed form
Protocol: The diffraction measurements were performed at ambient conditions on a PANalytical X'Pert PRO θ-θ diffractometer of 240 mm of radius in reflection geometry, equipped with Cu Kα radiation and a PIXcel detector, operated at 45 kV and 40 mA. Each sample was mounted on a zero-background silicon holder and allowed to spin at 0.25 rev/s during data collection. The measurement angular range was 3.0-40.0° (2θ) with a step size of 0.013°. The scanning speed was 0.0821°/s (40.80 s/step).
Dry samples were pressed at the indicated pressures in a Perkin Elmer hydraulic press using a 13 mm stamp for a time period of 3-5 seconds.
The dried filter cake obtained by the above described method 1 was pressed for 3-5 seconds at 1.5 MPa using a Perkin Elmer hydraulic press and 13 mm tableting stamp. The resulting material was subjected to a DSC and a PXRD-experiment. The results are depicted in FIG. 13 (DSC) and FIG. 14 (PXRD). […] This feature renders this polymorph suitable for processing in the course of tableting, especially.

CNC[C@H](O)[C@@H](O)[C@H](O)[C@H](O)CO.O=C(O)c1ccc2nc(-c3cc(Cl)cc(Cl)c3)oc2c1 [crystalline Tafamidis meglumine, 2-(3,5-dichlorophenyl)-1,3-benzoxazole-6-carboxylic acid * (2R,3R,4R,5S)-6-(methyl-amino)-hexane-1,2,3,4,5-pentol]
PXRD diffraction pattern / structure of the crystalline form upon pressure treatment: does not change upon pressure treatment | PXRD diffraction pattern / structure of the crystalline form upon pressure treatment (listed as crystalline form): insensitive to pressure
